Data as given in US20230094952A1, “Method for Culturing Hematopoietic Stem Cells” (Sumitomo Pharma Co., Ltd., priority 2019, published 2023).

System: mouse long-term hematopoietic stem cells
Assay: Reproducibility and concentration dependence test: 1-week culture of sorted Hoxb5-tri-mCherry mouse long-term hematopoietic stem cells, flow cytometry
Assay type: cell-based
Details: day 7 of culture, n=2
Experimental: Mice with insertion of a nucleic acid sequence containing three copies of a gene encoding the fluorescent protein mCherry to the C terminus of the mouse endogenous HoxB5 gene (Hoxb5-tri-mCherry) were used (triple-mCherry Hoxb5 knock-in mice; Non Patent Literature 1). The mice were housed under environmental conditions such that the room temperature and the humidity were 20 to 26° C. and 40 to 70%, respectively, under light for 12 hours and under dark for 12 hours (illumination: 8:00 a.m. to 8:00 p.m.).
Bone marrow cells were collected from the tibia, femur, humerus, and pelvis in each side of each of the mice, and gathered in a mortar. A buffer obtained by adding thermally deactivated bovine serum (manufactured by Gibco) at a final concentration of 2% and EDTA at a final concentration of 2 mM to Ca^2+-free and Mg^2+-free PBS was added, and the resultant was broken with a pestle to obtain a cell population including hematopoietic stem cells.
First, the thus-obtained cell population including hematopoietic stem cells was passed through strainers (meshes) of 100 μm, 70 μm, and 40 μm. The cell population was stained with an APC-binding anti-c-Kit (2B8) and fractionated with anti-APC magnetic beads and an LS column (both manufactured by Miltenyi Biotec) to obtain a cell population enriched with hematopoietic stem cells and progenitor cells.
Subsequently, cells being c-Kit-positive were stained with antibodies for the following cell surface markers.
Staining with the antibodies was performed at 4° C., and the cells were incubated for 30 minutes. For staining with the CD34 antibody, the cells were incubated for 90 minutes. Dead cell staining was performed with SYTOX Red Dead Cell Stain (manufactured by Life Technologies) in accordance with a method recommended by the manufacturer.
Flow cytometry analysis and cell classification (cell sorting) were performed with a FACS Aria II cell sorter (manufactured by BD Biosciences), wherein Lineage-negative, c-Kit-positive, Sca-1-positive, Flk2-negative, CD34-negative or weakly CD34-positive, CD150-positive, and mCherry-positive fractions were regarded as long-term hematopoietic stem cells, and analysis was performed with the software FlowJo (manufactured by Tree Star, Inc.).
The cells after classification were seeded in a 96-well plate. A cell culture medium was prepared by adding Stem Cell Factor (SCF, manufactured by PeproTech, Inc.) and Thrombopoietin (TPO, manufactured by PeproTech, Inc.) to StemSpan SFEM culture medium (manufactured by […] Technologies Inc.) and added in advance to a cell culture 96-well plate (manufactured by BD Biosciences) at 100 μL/well, and the cells sorted with the FACS Aria II cell sorter (BD Biosciences) were then seeded at 10 cells/well.
[…] Thereafter, the cells were cultured in a CO2 incubator under conditions of 37° C. and 5% CO2 for 1 week.
After culture, the cells were stained with the antibodies for the surface markers c-Kit and Sca-1, Ter-119, B220, CD3, CD4, CD8a, Gr-1, and CD11b, and the ratio and post-growth cell count of a KLS fraction (c-Kit^+, Lin^−, Sca-1^+) or an mCherry-positive fraction given with use of a FACS Aria II cell sorter were analyzed by using FlowJo (BD Biosciences). The mCherry-positive fraction is a cell fraction expressing the Hoxb5 gene, and the KLS fraction is a cell fraction being c-Kit-positive, Lin-negative, and Sca-1-positive, and includes hematopoietic stem cells and multipotent progenitor cells as main components. […]

Structure (SMILES)	KLS-positive rate (Table 4, compound 0.1 μM) [%]	Viable cell count (Table 4, compound 0.1 μM) [cell]	mCherry-positive rate (Table 4, compound 0.1 μM) [%]	KLS-positive rate (Table 4, compound 0.3 μM) [%]	Viable cell count (Table 4, compound 0.3 μM) [cell]	mCherry-positive rate (Table 4, compound 0.3 μM) [%]	KLS-positive rate (Table 4, compound 1 μM) [%]	Viable cell count (Table 4, compound 1 μM) [cell]	mCherry-positive rate (Table 4, compound 1 μM) [%]	KLS-positive rate (Table 4, compound 3 μM) [%]	Viable cell count (Table 4, compound 3 μM) [cell]	mCherry-positive rate (Table 4, compound 3 μM) [%]	KLS-positive rate (Table 4, compound 10 μM) [%]	Viable cell count (Table 4, compound 10 μM) [cell]	mCherry-positive rate (Table 4, compound 10 μM) [%]	also measured
CC(=O)OCCOC1O[C@@H]2O[C@@]3(C)CC[C@H]4[C@H](C)CC[C@@H]([C@H]1C)[C@@]24OO3 (stereo in doubt) [Example 1-26, 2-{[(3R,5aS,6R,8aS,9R,10S,12R,12aR)-3,6,9-Trimethyldecahydro-12H-3,12-epoxypyrano[4,3-j][1,2]benzodioxepin-10-yl]oxy}ethyl acetate]	56.1	13.5	80.7	68.5	48.5	95.0	55.4	20.0	96.7	26.9	43.5	100.0	28.9	30.5	100.0	
C[C@H]1[C@@H](O)O[C@@H]2O[C@@]3(C)CC[C@H]4[C@H](C)CC[C@@H]1[C@@]24OO3 [Example 1-29, artenimol, reference compound]	19.4	469.5	13.3	13.7	215.0	6.0	11.3	248.0	3.9	80.0	4.5	100.0	50.0	0.5	50.0	KLS-positive rate (Table 3, compound 0.1 μM): 8.92%; Viable cell count (Table 3, compound 0.1 μM): 1563 cell; mCherry-positive rate (Table 3, compound 0.1 μM): 16.9%; KLS-positive rate (Table 3, compound 0.3 μM): 18%; Viable cell count (Table 3, compound 0.3 μM): 2268 cell; mCherry-positive rate (Table 3, compound 0.3 μM): 42.4%; KLS-positive rate (Table 3, compound 1 μM): 20.05%; Viable cell count (Table 3, compound 1 μM): 666.5 cell; mCherry-positive rate (Table 3, compound 1 μM): 84.8%; KLS-positive rate (Table 3, compound 3 μM): 0%; Viable cell count (Table 3, compound 3 μM): 0 cell; mCherry-positive rate (Table 3, compound 3 μM): 0%; KLS-positive rate (Table 3, compound 10 μM): 0%; Viable cell count (Table 3, compound 10 μM): 0 cell; mCherry-positive rate (Table 3, compound 10 μM): 0%
C[C@H]1[C@H](n2cc(-c3ccccc3)nn2)O[C@@H]2O[C@@]3(C)CC[C@H]4[C@H](C)CC[C@@H]1[C@@]24OO3 [Example 1-9, 4-Phenyl-1-[(3R,5aS,6R,8aS,9R,10R,12R,12aR)-3,6,9-trimethyldecahydro-12H-3,12-epoxypyrano[4,3-j][1,2]benzodioxepin-10-yl]-1H-1,2,3-triazole]	10.6	627.5	5.9	31.1	500.0	4.5	34.3	625.0	9.4	14.1	479.0	8.1	27.1	491.5	11.4	
CC(=O)OCCO[C@@H]1O[C@@H]2O[C@@]3(C)CC[C@H]4[C@H](C)CC[C@@H]([C@H]1C)[C@@]24OO3 [Example 1-27, 2-{[(3R,5aS,6R,8aS,9R,10R,12R,12aR)-3,6,9-Trimethyldecahydro-12H-3,12-epoxypyrano[4,3-j][1,2]benzodioxepin-10-yl]oxy}ethyl acetate]	45.4	122.0	44.3	75.0	14.5	94.7	100.0	6.0	100.0	90.0	6.0	100.0	49.8	17.5	100.0	
CC1=CO[C@@H]2O[C@@]3(C)CC[C@H]4[C@H](C)CC[C@@H]1[C@@]24OO3 [Example 1-28, (3R,5aS,6R,8aS,12R,12aR)-3,6,9-trimethyl-3,4,5,5a,6,7,8,8a-octahydro-12H-3,12-epoxypyrano[4,3-j][1,2]benzodioxepine]	21.5	275.5	12.9	13.5	305.0	15.0	10.5	522.0	35.5	16.5	283.0	80.3	41.2	138.0	96.4	
CCO[C@H]1O[C@@H]2O[C@@]3(C)CC[C@H]4[C@H](C)CC[C@@H]([C@H]1C)[C@@]24OO3 [Example 1-31, artemotil, reference compound]	26.5	201.5	84.9	19.7	194.0	96.3	62.3	19.5	98.3	87.5	2.5	100.0	25.0	1.5	50.0	KLS-positive rate (Table 3, compound 0.1 μM): 28.85%; Viable cell count (Table 3, compound 0.1 μM): 1073 cell; mCherry-positive rate (Table 3, compound 0.1 μM): 57.4%; KLS-positive rate (Table 3, compound 0.3 μM): 21.95%; Viable cell count (Table 3, compound 0.3 μM): 1529 cell; mCherry-positive rate (Table 3, compound 0.3 μM): 47.65%; KLS-positive rate (Table 3, compound 1 μM): 30.8%; Viable cell count (Table 3, compound 1 μM): 249 cell; mCherry-positive rate (Table 3, compound 1 μM): 92.85%; KLS-positive rate (Table 3, compound 3 μM): 66.65%; Viable cell count (Table 3, compound 3 μM): 8 cell; mCherry-positive rate (Table 3, compound 3 μM): 100%; KLS-positive rate (Table 3, compound 10 μM): 0%; Viable cell count (Table 3, compound 10 μM): 0 cell; mCherry-positive rate (Table 3, compound 10 μM): 0%
C[C@H]1[C@@H](C)O[C@@H]2O[C@@]3(C)CC[C@H]4[C@H](C)CC[C@@H]1[C@@]24OO3 [Example 1-6, (3R,5aS,6R,8aS,9R,10R,12R,12aR)-3,6,9,10-Tetramethyldecahydro-12H-3,12-epoxypyrano[4,3-j][1,2]benzodioxepine]	34.8	147.0	2.0	20.9	190.0	15.6	19.8	183.5	24.4	17.6	215.5	80.8	47.8	37.5	98.4	
